In patent publication US6605641B2, “20-HETE antagonists and agonists” (MCW Research Foundation, priority 1998, dated 2003):
“Also recorded” adds a separate entry of the source.

Key:
[1] = tested on: vasoconstrictor response to 20-HETE in isolated renal interlobular arteries; assay: 20-HETE antagonist activity: dose response curves to 20-HETE before and after addition of analog; format: cell-based, rat; settings: for effect of analog on the vasoconstrictor response to 20-HETE (antagonist activity): analog 0.5 or 1 μM in bath, 20-HETE 10^−8 to 10^−6 M; for reduction of the vasoconstrictor response to 20-HETE: analog 1 μM in bath, for arachidonic acid response to 1 μM 20-HETE
Protocol: We also disclose below a test for 20-HETE antagonist activity. In this analysis, test compounds were analyzed by a cumulative dose response curve to 20-HETE generated before and after the addition of the test compound. […] We envision suitable antagonists as similarly blocking the vasoconstrictor response.
(§1) Isolated vessel studies. Interlobular arterioles (70-120 μm inner diameter) were microdissected from the kidneys of rats. The vessels were mounted on glass micropipettes in a perfusion chamber containing physiological saline solution equilibrated with a 95% O2-5% CO2 gas mixture and maintained at 37° C. The vessel were secured to the pipettes and side branches were tied off with 10-0 silk suture. The inflow pipette was connected to a pressurized reservoir to control of intraluminal perfusion pressure, which was monitored using a transducer (Cobe, Lakewood, Colo.). The vessels were stretched to in vivo length measured before microdissection. The outflow cannula was clamped off and intraluminal pressure was maintained at 90 mm Hg during the experiment. Vascular diameters were measured with a video system composed of a stereo microscope (Carl Zeiss, Inc., Germany), a CCTV television camera (KP-130AU, Hitachi, Japan), a videocassette recorder (AG-7300, Panasonic, Japan), a television monitor (CVM-1271, Sony, Japan), and a video measuring system (VIA-100, Boeckeler Instrument Co., Tucson, Ariz.).
(§2) The composition of the perfusate and the bath was (in mM): 119 NaCl, 4.7 KCl, 1.17 MgSO4, 1.6 CaCl2, 12 NaHCO3, 1.18 NaH2PO4, 0.03 EDTA and 10 glucose, pH 7.4. Indomethacin (5 μM), baicalein (0.5 μM) and 17-ODYA (1 μM) were added to the bath to block the endogenous formation and metabolism of eicosanoids via the cyclooxygenase, lipoxygenase and cytochrome P450 pathways. After the equilibration period, cumulative dose response curves were generated for each of the 20-HETE analogs.
20-HETE antagonist activity. […] In these experiments, cumulative dose response curves to 20-HETE (10^−8 to 10^−6 M) were generated before and after addition of 5(S)-HETE (0.5 μM), 8(S)-HETE (1 μM), 12(S)-HETE (0.5 μM), 15(S)-HETE (1 μM), 19(S)-HETE (1 μM), the C19-analog (1 μM), arachidonic acid (1 μM), 20-carboxy-arachidonic acid (1 μM), reverse 20-HETE (1 μM), saturated 20-HETE (1 μM), and the saturated C19-analog (1 μM) to the bath. Vascular diameters were recorded 2 to 3 minutes after the addition of each dose of 20-HETE to the bath.

[2] = tested on: isolated, pressured rat renal interlobular arteries; assay: Isolated vessel studies: vasoconstrictor response (vascular diameter) to cumulative doses of 20-HETE analogs; format: cell-based; settings: 10^−8 to 10^−6 M (up to 1 μM), indomethacin, baicalein, 17-ODYA present, diameter 2 to 3 minutes after addition
Protocol: General. Experiments were performed on 10 to 12-week old male Sprague-Dawley rats purchased from Harlan Sprague-Dawley Laboratories (Indianapolis, Ind.). The rats were housed in the animal care facility at the Medical College of Wisconsin, which is approved by the American Association for the Accreditation of Laboratory Animal Care. The animals had free access to food and water. All protocols involving animals received approval by the Animal Care Committee of the Medical College of Wisconsin.
as §1, §2
Effect of the position of the hydroxyl group on the vasoconstrictor response to 20-HETE. These experiments examined the effects of increasing concentrations of 5(S)-, 8(S)-, 12(S)-, 15(S)-, and 19(S)-HETE on the diameter of isolated, pressured rat renal interlobular arteries. All of these analogs have the same number of carbons, double bonds and molecular weight as 20-HETE (FIG. 1). The major difference between these compounds and 20-HETE is the position of the OH group along the carbon chain. Additional experiments were performed with arachidonic acid and 20-carboxyarachidonic acid, which are structurally similar to 20-HETE but lack a hydroxyl group on the 20th carbon and 20-hydroxyeicosa-6, 15-dienoic acid (reverse 20-HETE) which has the carboxy- and hydroxy-moieties on the 1st and 20th carbons reversed. Cumulative dose response curves were generated for each compound (10^−8 to 10^−6 M) in the presence of indomethacin, baicalein, and 17-ODYA. Vascular diameters were recorded 2 to 3 minutes after the addition of the compounds to the bath.
Effect of the double bonds and carbon chain length to the vasoconstrictor response to 20-HETE. We next examined the importance of the double bonds and the length of the carbon chain to the vasoconstrictor response to 20-HETE. In these studies, the double bonds in the 20-HETE molecule were removed creating partial and saturated 20-HETE derivatives (20-hydroxyeicosa-6(Z),15(Z) dienoic acid; 20-hydroxyeicosanoic acid, FIG. 1). 20-HETE was also shortened by one carbon, creating a 19-carbon analog (19-hydroxynonadeca-5(Z),8(Z),11(Z),14(Z)-tetraenoic acid, FIG. 1) and double bonds were removed, creating a saturated 19-carbon analog (19 hydroxynonadecanoic acid, FIG. 1). […]

In the case of CCCCC/C=C\C/C=C\C/C=C\C=C\[C@@H](O)CCCC(=O)O [5(S)-HETE], the “effect of analog on the vasoconstrictor response to 20-HETE (antagonist activity)” value (from here on “effect of analog”) ([1]; listed as 5-HETE) is reported as “completely blocked; also recorded: very effective antagonists; also recorded: blocked the vasoconstrictor response to 20-HETE”, the “effect on the diameter of renal interlobular arteries (vasoconstrictor/agonist activity)” value (“effect … (vasoconstrictor/agonist activity)” for short) [2] is reported as “no significant effect” and the “effect … (vasoconstrictor/agonist activity)” value ([2]; listed as 5-HETE) is reported as “no effect”.
For CCCCC/C=C\C/C=C\C=C\[C@@H](O)C/C=C\CCCC(=O)O [8(S)-HETE], the “effect of analog” value [1] was “no significant effect”, the “effect of analog” value ([1]; listed as 8-HETE) was “did not antagonize” and the “effect … (vasoconstrictor/agonist activity)” value [2] was “no significant effect”. For the same compound, the “effect … (vasoconstrictor/agonist activity)” value ([2]; listed as 8-HETE) was “no effect”.
For CCCCC/C=C\C[C@H](O)/C=C/C=C\C/C=C\CCCC(=O)O [12(S)-HETE], the “effect of analog” value [1] was “no significant effect”, the “effect of analog” value ([1]; listed as 12-HETE) was “did not antagonize” and the “effect … (vasoconstrictor/agonist activity)” value [2] was “no significant effect”. The “effect … (vasoconstrictor/agonist activity)” value ([2]; listed as 12-HETE) was “no effect”.
CCCCC[C@H](O)/C=C/C=C\C/C=C\C/C=C\CCCC(=O)O [15(S)-HETE] was tested, and the “effect of analog” value ([1]; listed as 15-HETE) was “completely blocked; also recorded: very effective antagonists; also recorded: blocked the vasoconstrictor response to 20-HETE”, the “effect … (vasoconstrictor/agonist activity)” value [2] was “no significant effect” and the “effect … (vasoconstrictor/agonist activity)” value ([2]; listed as 15-HETE) was “no effect”.
With C[C@H](O)CCC/C=C\C/C=C\C/C=C\C/C=C\CCCC(=O)O [19(S)-HETE] the “effect of analog” value ([1]; listed as 19-HETE) was “completely eliminated the response to 20-HETE; also recorded: very effective antagonists”, the “effect … (vasoconstrictor/agonist activity)” value [2] was “no significant effect” and the “effect … (vasoconstrictor/agonist activity)” value ([2]; listed as 19-HETE) was “no effect”.
In the case of O=C(O)CCCC/C=C\CCCCCCC/C=C\CCCCO [20-Hydroxyeicosa-6(Z),15(Z)-dienoic Acid], the “effect of analog” value [1] is reported as “completely blocked”, the “effect of analog” value ([1]; listed as partially saturated reverse 20-HETE) is reported as “completely eliminated the response to 20-HETE” and the “effect … (vasoconstrictor/agonist activity)” value [2] is reported as “eliminated agonist activity”.
In the case of O=C(O)CCC/C=C\C/C=C\C/C=C\C/C=C\CCCCCCO [21-HETE, 21-Hydroxyheneicosa-5(Z),8(Z),11(Z),14(Z)-tetraenoic Acid], the “effect … (vasoconstrictor/agonist activity)” value [2] is reported as “just as potent constrictors as 20-HETE” and the “effect … (vasoconstrictor/agonist activity)” value ([2]; listed as 21-carbon derivative) is reported as “just as potent vasoconstrictors as 20-HETE”.
In the case of O=C(O)CCC/C=C\C/C=C\C/C=C\C/C=C\CCCCO [C19-analog, 19-Hydroxynonadeca-5(Z),8(Z),11(Z),14(Z)-tetraenoic Acid], the “effect of analog” value [1] is reported as “completely eliminated the response to 20-HETE”, the “effect of analog” value ([1]; listed as C19 analog) is reported as “very effective antagonists” and the “effect … (vasoconstrictor/agonist activity)” value ([2]; listed as 19-carbon analog of 20-HETE) is reported as “no significant effect”. The “effect … (vasoconstrictor/agonist activity)” value ([2]; listed as 19-carbon derivative of 20-HETE) was “no effect”.
In the case of CCCCC/C=C\C/C=C\C/C=C\C/C=C\CCCC(=O)O [arachidonic acid], the “reduction of the vasoconstrictor response to 20-HETE” value [1] is reported as 50%, the “effect of analog” value [1] is reported as “very effective antagonists” and the “effect … (vasoconstrictor/agonist activity)” value [2] is reported as “no significant effect; also recorded: does not constrict”.
CC(C)(O)CCCCC=CCC=CCC=CCC=CCCCC(=O)O [dimethyl 20-HETE, 20,20-Dimethyl-20-HETE] was tested, and the “effect … (vasoconstrictor/agonist activity)” value [2] was “just as potent constrictors as 20-HETE” and the “effect … (vasoconstrictor/agonist activity)” value ([2]; listed as dimethyl derivative) was “just as potent vasoconstrictors as 20-HETE”.
For O=C(O)CCC/C=C\CCCCCCC/C=C\CCCCCO [partially saturated 20-HETE derivative, 20-Hydroxyeicosa-5(Z),14(Z)-dienoic Acid], the “effect … (vasoconstrictor/agonist activity)” value [2] was “potent a constrictor as 20-HETE” and the “effect … (vasoconstrictor/agonist activity)” value ([2]; listed as partially saturated analog) was “retained vasoconstrictor activity”.
With O=C(O)CCCCCCCCCCCCCCCCCCO [saturated 19-carbon analog, 19-Hydroxynonadecanoic Acid] the “reduction of the vasoconstrictor response to 20-HETE” value [1] was “about 50%” and the “effect of analog” value [1] was “not as effective as the parent compounds”.
For “Eicosatetraen-1,20-dioic Acid [20-carboxy-arachidonic acid]”, the “effect of analog” value [1] was “no significant antagonistic properties” and the “effect … (vasoconstrictor/agonist activity)” value [2] was “no significant effect”.
